Tests used:
Test in all cases: relative viability (nuclei count vs DMSO), 5 days (fraction); higher = more cells survive
Shikonin + Linsitinib = compound: CC(C)=CC[C@@H](O)C1=CC(=O)c2c(O)ccc(O)c2C1=O [Shikonin] + C[C@]1(O)C[C@@H](c2nc(-c3ccc4ccc(-c5ccccc5)nc4c3)c3c(N)nccn32)C1 [Linsitinib] (partner 1 µM)
In short: (§1)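 Each reported value is a median over duplicate plates. It expresses relative viability: treated-well nuclei count divided by vehicle-well nuclei count. Lung cancer cell lines in 1536-well plates were dosed by pin tool a day after seeding, alone with one drug or with a fixed anchor-drug dose plus five library-drug doses (not always all listed) in √10 steps, and nuclei were counted after 5 days.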

Shikonin + Bortezomib = compound: CC(C)=CC[C@@H](O)C1=CC(=O)c2c(O)ccc(O)c2C1=O [Shikonin] + CC(C)C[C@H](NC(=O)[C@H](Cc1ccccc1)NC(=O)c1cnccn1)B(O)O [Bortezomib] (partner 0.002 µM)
In short: as §1

[1] = compound: CC(C)N(CCCNC(=O)Nc1ccc(C(C)(C)C)cc1)C[C@H]1O[C@@H](n2ccc3c(N)ncnc32)[C@H](O)[C@@H]1O + Cc1nc(NC(=O)N2CCC[C@H]2C(N)=O)sc1-c1ccnc(C(C)(C)C(F)(F)F)c1 [Alpelisib] (partner 2 µM)
In short: as §1

Shikonin + Navitoclax = compound: CC(C)=CC[C@@H](O)C1=CC(=O)c2c(O)ccc(O)c2C1=O [Shikonin] + CC1(C)CCC(c2ccc(Cl)cc2)=C(CN2CCN(c3ccc(C(=O)NS(=O)(=O)c4ccc(N[C@H](CCN5CCOCC5)CSc5ccccc5)c(S(=O)(=O)C(F)(F)F)c4)cc3)CC2)C1 [Navitoclax] (partner 0.5 µM)
In short: as §1

UMC-11
relative viability (Shikonin + Linsitinib; first compound 0.01 µM): 1.02
relative viability (Shikonin + Linsitinib; first compound 0.1 µM): 1.19
relative viability (Shikonin + Linsitinib; first compound 0.3162 µM): 1.1
relative viability (Shikonin + Linsitinib; first compound 1 µM): 1.13
relative viability (Shikonin + Bortezomib; first compound 0.01 µM): 0.773
relative viability (Shikonin + Bortezomib; first compound 0.1 µM): 0.854
relative viability (Shikonin + Bortezomib; first compound 0.3162 µM): 0.675
relative viability (Shikonin + Bortezomib; first compound 1 µM): 0.812
relative viability ([1]; first compound 0.08 µM): 0.957
relative viability ([1]; first compound 0.253 µM): 0.891
relative viability ([1]; first compound 0.8 µM): 1.09
relative viability ([1]; first compound 2.53 µM): 0.958
relative viability ([1]; first compound 8 µM): 0.964
relative viability (Shikonin + Navitoclax; first compound 0.01 µM): 0.282
relative viability (Shikonin + Navitoclax; first compound 0.1 µM): 0.324
relative viability (Shikonin + Navitoclax; first compound 0.3162 µM): 0.31
relative viability (Shikonin + Navitoclax; first compound 1 µM): 0.318
